Experimental findings from patent US7838463B2, “Safeners based on acrylic-aliphatic carboxylic acid derivatives” (Bayer CropScience AG, priority 2003, dated 2010) are described below.

Holding throughout (type): in vivo
The test system of assay [1] is Zea mays (corn), cv. 'Lorenzo'. Briefly: Post-emergence application of herbicide H3 (glufosinate-ammonium) and safener by the tank mix method: crop damage. The conditions noted are these: safener 250 g a.i./ha + herbicide H3 (glufosinate-ammonium) 250 g a.i./ha, post-emergence tank mix; for Safener action as % damage reduction in crop plants: ZEAMA, versus herbicide alone; for % damage in ZEAMA: visual scoring four weeks after application. The source says:
(§1) Seeds of various crop plants and weed species were sown in sandy loam soil in round plastic pots of a diameter of 13 cm and covered with a layer of sandy loam of a thickness of about 1 cm. The pots were placed in a greenhouse under favorable growth conditions for a duration of about two to three weeks, allowing the plants to reach a growth stage of 2 to 4 leaves. The herbicides, in the form of liquid (for example emulsion concentrates, aqueous solutions) or dry (for example water-dispersible powders) formulations, were diluted with deionized water to the required concentrations and applied to the green parts of the plants and the uncovered part of the surface of the soil with a spray bar using a water application rate of 300 liters per hectare. In the experiment shown below, the safeners were used as 20 percent strength water-dispersible powders and the herbicide glufosinate-ammonium as a commercial 20 percent strength aqueous surfactant-containing solution (results see table 1.2.2).
(§2) The pots were placed in a greenhouse under favorable growth conditions. Visual scoring of the herbicidal action was carried out four weeks after the herbicidal application. Evaluation was carried out on a percentage basis by comparison with untreated control plants (0%=no noticeable effect compared with the untreated plant, 100%=treated plant dies).

Another assay relates to Amaranthus retroflexus. Briefly: Post-emergence application of herbicide H3 (glufosinate-ammonium) and safener by the tank mix method: herbicidal action. The conditions noted are these: safener 250 g a.i./ha + herbicide H3 (glufosinate-ammonium) 250 g a.i./ha, post-emergence tank mix; four weeks.
From the text: as §1, §2

In the next assay the test system is Chenopodium album. The description is as above. The conditions noted are these: safener 250 g a.i./ha + herbicide H3 (glufosinate-ammonium) 250 g a.i./ha, post-emergence tank mix; four weeks.
From the text: as §1, §2

A further assay relates to Setaria viridis. Briefly: Pre-emergence application of herbicide H1 (isoxaflutole) and safener by the tank mix method: herbicidal action. The conditions noted are these: safener 250 g a.i./ha + herbicide H1 (isoxaflutole) 100 g a.i./ha, pre-emergence tank mix; four weeks. Here is the method:
Seeds of various crop plants and weed species were sown in sandy loam soil in round plastic pots of a diameter of 13 cm and covered with a layer of sandy loam of a thickness of about 1 cm. Herbicides and safeners in the form of liquid (for example emulsion concentrates) or dry (for example water-dispersible powders) formulations were diluted with deionized water to the required concentrations and applied to the surface of the soil with a spray bar using a water application rate of 300 liters per hectare. In the experiment shown below, the safeners were used as 20 percent strength water-dispersible powders and the herbicide isoxaflutole was used as an aqueous suspension concentrate (see table 1.1.1). The pots were placed in a greenhouse under favorable growth conditions. Visual scoring of the herbicidal action was carried out four weeks after the herbicide application. Evaluation was carried out on a percentage basis by comparison with untreated control plants (0%=no noticeable effect compared with the untreated plant, 100%=treated plant dies).

On to `O=C(O)C=Cc1ccccc1O` [Comp. 17, 2-hydroxycinnamic acid], for which, in assay [1], the “Safener action as % damage reduction in crop plants” value turned out to be 61% and the “% damage in ZEAMA” value was 24%. For the same compound, in the assay with Amaranthus retroflexus, the “Herbicidal action as % damage in AMARE” value turned out to be 95%. In addition, the “Herbicidal action as % damage in CHEAL” value in the assay with Chenopodium album was 97%. Moreover, in the assay on Setaria viridis, the “Herbicidal action as % damage in SETVI” value came out at 96%.
The matching figures for `O=C(O)C=Cc1ccc(Cl)cc1Cl` [Comp. 155, 2,4-dichlorocinnamic acid]: 66%, 21%, 94%, 92% and 95%.
